One may read the Km as the substrate concentration at which the rate is half of its maximum.

Ten molecules from article PMC9352624, “Going deeper into the toxicokinetics of synthetic cannabinoids: in vitro contribution of human carboxylesterases” (Archives of Toxicology, 2022) can be followed below.

Values joined by “and” are separate entries in the source; they are usually repeats but may differ in a detail not shown here. Equal values may be shown once.

One data set addresses T1, hCES2 (Homo sapiens, UniProt O00748).
T1 sequence (O00748 27-559): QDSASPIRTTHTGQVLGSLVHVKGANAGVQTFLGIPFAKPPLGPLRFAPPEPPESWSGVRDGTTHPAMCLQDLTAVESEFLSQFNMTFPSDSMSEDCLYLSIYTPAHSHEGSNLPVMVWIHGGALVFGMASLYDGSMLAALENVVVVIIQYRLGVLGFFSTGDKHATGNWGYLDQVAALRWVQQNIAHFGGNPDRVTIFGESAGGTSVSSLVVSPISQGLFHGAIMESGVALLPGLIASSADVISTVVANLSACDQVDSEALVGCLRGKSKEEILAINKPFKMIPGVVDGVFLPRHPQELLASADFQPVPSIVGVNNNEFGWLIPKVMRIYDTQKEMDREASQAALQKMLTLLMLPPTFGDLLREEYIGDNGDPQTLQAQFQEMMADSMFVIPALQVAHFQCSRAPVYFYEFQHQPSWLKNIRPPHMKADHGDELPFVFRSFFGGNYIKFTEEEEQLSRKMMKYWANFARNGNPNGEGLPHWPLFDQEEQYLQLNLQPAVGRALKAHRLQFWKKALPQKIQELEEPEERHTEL
Nature of the data set: Initial activity screening with recombinant hCES2. Particulars: 100 µM substrate, 30 min, 37 °C, 0.2 µg/µL protein, LC–ITMS; for Relative amount of hydrolysis metabolite formed, hCES2: mean n = 2.

Data set [1] has as its target T2, hCES1b (Homo sapiens, UniProt P23141).
T2 sequence (P23141 18-567): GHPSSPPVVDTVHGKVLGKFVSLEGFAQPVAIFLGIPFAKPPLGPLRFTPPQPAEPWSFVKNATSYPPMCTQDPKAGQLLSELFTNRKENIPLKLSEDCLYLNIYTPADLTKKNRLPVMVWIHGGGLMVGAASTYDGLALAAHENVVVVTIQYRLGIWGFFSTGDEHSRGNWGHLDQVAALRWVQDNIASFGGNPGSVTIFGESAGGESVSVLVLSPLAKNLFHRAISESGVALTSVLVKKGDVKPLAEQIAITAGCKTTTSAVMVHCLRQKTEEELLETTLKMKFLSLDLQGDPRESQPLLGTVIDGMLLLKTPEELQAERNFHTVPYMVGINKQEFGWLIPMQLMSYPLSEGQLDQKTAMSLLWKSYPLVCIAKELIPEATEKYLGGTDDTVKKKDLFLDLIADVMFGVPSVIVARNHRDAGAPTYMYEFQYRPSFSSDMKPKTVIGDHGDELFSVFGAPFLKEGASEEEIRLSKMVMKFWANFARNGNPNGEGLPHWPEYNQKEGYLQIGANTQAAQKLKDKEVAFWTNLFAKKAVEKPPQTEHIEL
Nature of the data set: Initial activity screening with recombinant hCES1b. Particulars: 100 µM substrate, 30 min, 37 °C, 0.2 µg/µL protein, LC–ITMS; for Relative amount of hydrolysis metabolite formed, hCES1b: mean n = 2.

Data set [2] concerns the target T3, hCES1c (Homo sapiens, UniProt P23141).
T3 sequence (P23141 18-566 isoform P23141-3 limits assumed): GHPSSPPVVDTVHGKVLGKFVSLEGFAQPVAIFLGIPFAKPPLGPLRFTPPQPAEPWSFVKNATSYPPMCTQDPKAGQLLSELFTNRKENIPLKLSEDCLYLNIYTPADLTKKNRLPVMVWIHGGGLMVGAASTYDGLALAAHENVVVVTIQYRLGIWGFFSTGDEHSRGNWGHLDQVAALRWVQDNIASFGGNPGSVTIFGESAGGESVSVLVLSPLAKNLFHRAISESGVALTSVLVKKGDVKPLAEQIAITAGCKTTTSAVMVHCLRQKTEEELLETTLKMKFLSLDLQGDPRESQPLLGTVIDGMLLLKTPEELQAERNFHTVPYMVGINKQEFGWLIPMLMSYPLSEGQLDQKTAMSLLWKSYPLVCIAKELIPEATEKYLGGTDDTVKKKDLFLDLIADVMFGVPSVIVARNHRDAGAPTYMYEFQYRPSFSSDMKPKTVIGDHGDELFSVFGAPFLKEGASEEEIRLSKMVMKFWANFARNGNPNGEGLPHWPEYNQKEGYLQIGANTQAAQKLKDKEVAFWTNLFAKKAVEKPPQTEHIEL
In words: Initial activity screening with recombinant hCES1c. Particulars: 100 µM substrate, 30 min, 37 °C, 0.2 µg/µL protein, LC–ITMS; for Relative amount of hydrolysis metabolite formed, hCES1c: mean n = 2.

Data set [3] addresses T3, hCES1c. Nature of the data set: Enzyme kinetic studies of ester hydrolysis with hCES1c. Particulars: for Clint (relative in vitro intrinsic clearance), hCES1c: Clint = Vmax/Km; for Vmax (relative), ester hydrolysis by hCES1c: ± S.D., peak area ratio metabolite/internal standard.
A short description of data set [4]: Initial activity screening with pooled human liver S9 fraction. To be noted: 100 µM substrate, 30 min, 37 °C, 2 µg/µL protein, LC–ITMS, mean n = 2.
Data set [5] has as its target T2, hCES1b. Nature of the data set: Enzyme kinetic studies of ester hydrolysis with hCES1b. To be noted: for Clint (relative in vitro intrinsic clearance), hCES1b: Clint = Vmax/Km; for Vmax (relative), ester hydrolysis by hCES1b: peak area ratio metabolite/internal standard.
Data set [6] can be described thus: Initial activity screening with pooled human liver microsomes. To be noted: 100 µM substrate, 30 min, 37 °C, 2 µg/µL protein, LC–ITMS, mean n = 2. (In general: Microsomes from liver hold many membrane-bound enzymes, among them those of drug oxidation.)

As for `C=CCCCn1cc(C(=O)N[C@H](C(=O)OC)C(C)C)c2ccccc21` [MMB-4en-PICA, methyl (1-(pent-4-en-1-yl)-1H-indole-3-carbonyl)-L-valinate], on hCES2, the “Hydrolysis of carboxamide linker, hCES2” value was “−”; the “Hydrolysis of carboxamide/ester in head group, hCES2” value is “+”; the “Relative amount of hydrolysis metabolite formed, hCES2” value amounted to 0.2%. Moreover, on hCES1b [1], the “Hydrolysis of carboxamide linker, hCES1b” value was “−”; the “Hydrolysis of carboxamide/ester in head group, hCES1b” value was “+”; the “Relative amount of hydrolysis metabolite formed, hCES1b” value (“Relative amount … hCES1b” for short) stood at 1.5%. Further, on hCES1c [2], the “Hydrolysis of carboxamide linker, hCES1c” value is on record as “−”; the “Hydrolysis of carboxamide/ester in head group, hCES1c” value is recorded as “+”; the “Relative amount of hydrolysis metabolite formed, hCES1c” value (shortened to “Relative amount … hCES1c”) was 5.7%. Further, on hCES1c [3], the “Clint (relative in vitro intrinsic clearance), hCES1c” value is given as 0.04 AU/min/mg/µM; the “Vmax (relative), ester hydrolysis by hCES1c” value was 7.57 AU/min/mg and 7.57 ± 0.42 AU/min/mg. In addition, in data set [4], the “Relative amount of hydrolysis metabolite formed, pHLS9” value worked out at 11%.

As to `O=C(NC12CC3CC(CC(C3)C1)C2)c1nn(CC2CCCCC2)c2ccccc12` [A-CHMINACA, 1-cyclohexylmethyl-N-tricyclo[3.3.1.13,7]dec-1-yl-1H-indazole-3-carboxamide], on hCES2, the “Hydrolysis of carboxamide linker, hCES2” value is reported as “−”. In addition, the “Hydrolysis of carboxamide linker, hCES1b” value on hCES1b [1] was “−”. Moreover, the “Hydrolysis of carboxamide linker, hCES1c” value on hCES1c [2] is recorded as “−”.

With `COC(=O)[C@@H](NC(=O)c1cn(CCCCCF)c2ccccc12)C(C)(C)C` [MDMB-5F-PICA, methyl (2S)-2-{[1-(5-fluoropentyl)-1H-indole-3-carbonyl]amino}-3,3-dimethylbutanoate], the “Hydrolysis of carboxamide linker, hCES2” value on hCES2 is listed as “−”. On hCES1b [1], the “Hydrolysis of carboxamide linker, hCES1b” value is “−” and the “Hydrolysis of carboxamide/ester in head group, hCES1b” value is given as “−”. Besides, at hCES1c [2], the “Hydrolysis of carboxamide linker, hCES1c” value is “−” and the “Hydrolysis of carboxamide/ester in head group, hCES1c” value is reported as “−”.

`CC(C)(C)C(NC(=O)c1nn(CC2CCCCC2)c2ccccc12)C(=O)O` (stereo not shown) [DMBA-CHMINACA, 2-[1-(cyclohexylmethyl)-1H-indazole-3-carboxamido]-3,3-dimethylbutanoic acid]: the “Hydrolysis of carboxamide linker, hCES2” value at hCES2 was “−”. The “Hydrolysis of carboxamide linker, hCES1b” value on hCES1b [1] is given as “−”. In addition, the “Hydrolysis of carboxamide linker, hCES1c” value at hCES1c [2] is on record as “−”.

Consider “N-[(2S)-1-amino-3,3-dimethyl-1-oxobutan-2-yl]-1-(cyclohexylmethyl)-1H-indole-3-carboxamide [MMB-CHMICA]”, for which, on hCES2, the “Hydrolysis of carboxamide linker, hCES2” value is given as “−”. Besides, at hCES1b [1], the “Hydrolysis of carboxamide linker, hCES1b” value is on record as “−”; the “Hydrolysis of carboxamide/ester in head group, hCES1b” value is “+”; the “Relative amount … hCES1b” value is 14%. On hCES1c [2], the “Hydrolysis of carboxamide linker, hCES1c” value is reported as “−”; the “Hydrolysis of carboxamide/ester in head group, hCES1c” value was “+”; the “Relative amount … hCES1c” value came to 2.3%. Further, the “Clint (relative in vitro intrinsic clearance), hCES1b” value on hCES1b [5] amounted to 0.53 AU/min/mg/µM. The Km on hCES1b [5] (read-out: Km, ester hydrolysis by hCES1b, ± S.D., Michaelis–Menten fit, conditions of Table 1) worked out at 39.3 ± 12 µM. In addition, the “Vmax (relative), ester hydrolysis by hCES1b” value at hCES1b [5] (± S.D.) was 20.8 AU/min/mg and 20.8 ± 2.2 AU/min/mg. In addition, in data set [6], the “Relative amount of hydrolysis metabolite formed, pHLM” value is on record as 25%.

Turning to `COC(=O)C(Cc1ccccc1)NC(=O)c1cn(CCCCCF)c2ccccc12` [MPhP-5F-PICA, methyl (1-(5-fluorpentyl)-1H-indole-3-carbonyl)-L-phenylalaninate], on hCES2, the “Hydrolysis of carboxamide linker, hCES2” value is “−”; the “Hydrolysis of carboxamide/ester in head group, hCES2” value is recorded as “+”; the “Relative amount of hydrolysis metabolite formed, hCES2” value is listed as 2.1%. Also, on hCES1b [1], the “Hydrolysis of carboxamide linker, hCES1b” value was “−”; the “Hydrolysis of carboxamide/ester in head group, hCES1b” value is listed as “+”; the “Relative amount … hCES1b” value turned out to be 19%. For the same molecule, on hCES1c [2], the “Hydrolysis of carboxamide linker, hCES1c” value was “−”; the “Hydrolysis of carboxamide/ester in head group, hCES1c” value is “+”; the “Relative amount … hCES1c” value turned out to be 20%. Further, the “Clint (relative in vitro intrinsic clearance), hCES1b” value on hCES1b [5] is listed as 2.0 AU/min/mg/µM. For the same molecule, the “Vmax (relative), ester hydrolysis by hCES1b” value at hCES1b [5] (± S.D.) is 182 AU/min/mg and 182 ± 13 AU/min/mg. In addition, at hCES1c [3], the “Clint (relative in vitro intrinsic clearance), hCES1c” value is reported as 3.2 AU/min/mg/µM; the “Vmax (relative), ester hydrolysis by hCES1c” value was 73.6 AU/min/mg and 73.6 ± 3.8 AU/min/mg.

For the molecule `COC(=O)[C@@H](NC(=O)c1cn(Cc2ccc(F)cc2)c2ccccc12)C(C)(C)C` [MDMB-FUBICA, methyl (2S)-2-({1-[(4-fluorophenyl)methyl]-1H-indole-3-carbonyl}amino)-3,3-dimethylbutanoate], at hCES2, the “Hydrolysis of carboxamide linker, hCES2” value was “−”. Further, on hCES1b [1], the “Hydrolysis of carboxamide linker, hCES1b” value is on record as “−” and the “Hydrolysis of carboxamide/ester in head group, hCES1b” value was “−”. Moreover, at hCES1c [2], the “Hydrolysis of carboxamide linker, hCES1c” value is listed as “−”; the “Hydrolysis of carboxamide/ester in head group, hCES1c” value was “+”; the “Relative amount … hCES1c” value is “below 1%”. For the same molecule, the “Relative amount of hydrolysis metabolite formed, pHLM” value in data set [6] is listed as “around 1%”. Also, the “Relative amount of hydrolysis metabolite formed, pHLS9” value in data set [4] is “around 1%”.

Take `CC(C)[C@H](NC(=O)c1cn(CCCCCF)c2ncccc12)C(N)=O` [AB-5F-P7AICA, (S)-N-(1-amino-3-methyl-1-oxobutan-2-yl)-1-(5-fluoropentyl)-1H-pyrrolo[2,3-b]pyridine-3-carboxamide]: at hCES2, the “Hydrolysis of carboxamide linker, hCES2” value is “−” and the “Hydrolysis of carboxamide/ester in head group, hCES2” value is reported as “−”. Moreover, at hCES1b [1], the “Hydrolysis of carboxamide linker, hCES1b” value is “−” and the “Hydrolysis of carboxamide/ester in head group, hCES1b” value is on record as “−”. For the same molecule, at hCES1c [2], the “Hydrolysis of carboxamide linker, hCES1c” value was “−” and the “Hydrolysis of carboxamide/ester in head group, hCES1c” value is given as “−”.

Turning to `CC(C)C(NC(=O)c1nn(CC2CCCCC2)c2ccccc12)C(=O)O` (stereo not shown) [MBA-CHMINACA, 2-[1-(cyclohexylmethyl)-1H-indazole-3-carboxamido]-3-methylbutanoic acid], the “Hydrolysis of carboxamide linker, hCES2” value at hCES2 is on record as “−”. Moreover, on hCES1b [1], the “Hydrolysis of carboxamide linker, hCES1b” value is reported as “−”. Besides, the “Hydrolysis of carboxamide linker, hCES1c” value at hCES1c [2] is “−”.

Regarding `CC(C)[C@H](NC(=O)c1cc(-c2ccc(F)cc2)nn1CCCCCF)C(N)=O` [3,5-AB-5F-FUPPYCA, N-[(1S)-1-(aminocarbonyl)-2-methylpropyl]-1-(5-fluoropentyl)-3-(4-fluorophenyl)-1H-pyrazole-5-carboxamide], at hCES2, the “Hydrolysis of carboxamide linker, hCES2” value is listed as “−” and the “Hydrolysis of carboxamide/ester in head group, hCES2” value is recorded as “−”. Further, at hCES1b [1], the “Hydrolysis of carboxamide linker, hCES1b” value is listed as “−” and the “Hydrolysis of carboxamide/ester in head group, hCES1b” value is “−”. On hCES1c [2], the “Hydrolysis of carboxamide linker, hCES1c” value is “−” and the “Hydrolysis of carboxamide/ester in head group, hCES1c” value is reported as “−”.
